Laboratory results from ChEMBL document CHEMBL5360643, “Cyclic Peptides from the Opportunistic Pathogen Basidiobolus meristosporus” (J Nat Prod, 2023).
Converted amounts (≈) assume the structure as drawn.

Key:
[1] = Cytotoxicity against mouse RAW264.7 cells assessed as reduction in cell viability incubated for 24 hrs by CCK-8 assay; format: toxicity, cell-based
[2] = Cytotoxicity against human HEK293T cells assessed as reduction in cell viability incubated for 24 hrs by CCK-8 assay; format: toxicity, cell-based, HEK-293T
[3] = Cytotoxicity against human HepG2 cells assessed as reduction in cell viability incubated for 24 hrs by CCK-8 assay; format: toxicity, cell-based

CC(C)C[C@H]1NC(=O)[C@H](Cc2ccccc2)NC(=O)[C@H](Cc2c[nH]c3ccccc23)NC(=O)[C@@H](C(C)C)NC(=O)[C@H](C(C)C)NC(=O)[C@@H](C)NC1=O
IC50 at 24 h [1]: 7.7 µg/mL (≈ 10.8 µM) | IC50 at 24 h [2]: 150 µg/mL (≈ 210 µM) | IC50 at 24 h [3]: 125 µg/mL (≈ 174 µM)

CC[C@H](C)[C@@H]1NC(=O)[C@H](Cc2ccccc2)NC(=O)[C@@H]2C[C@]3(O)c4ccccc4N[C@H]3N2C(=O)[C@H]([C@@H](C)O)NC(=O)[C@@H](Cc2ccc(O)cc2)NC1=O
IC50 at 24 h [1]: 182 µg/mL (≈ 251 µM) | IC50 at 24 h [2]: 148 µg/mL (≈ 203 µM) | IC50 at 24 h [3]: 110 µg/mL (≈ 151 µM)

CC[C@H](C)[C@@H]1NC(=O)[C@H](Cc2ccccc2)NC(=O)[C@H](Cc2c[nH]c3ccccc23)NC(=O)[C@@H]([C@@H](C)O)NC(=O)[C@@H](Cc2ccc(O)cc2)NC1=O
IC50 at 24 h [1]: 17.2 µg/mL (≈ 24.2 µM) | IC50 at 24 h [2]: 6 µg/mL (≈ 8.44 µM) | IC50 at 24 h [3]: 29.6 µg/mL (≈ 41.6 µM)

COc1cc([C@@H]2c3cc4c(cc3[C@H](O)[C@H]3COC(=O)[C@H]23)OCO4)cc(OC)c1OC [PODOFILOX]
IC50 at 24 h [1]: 61.3 µg/mL (≈ 148 µM) | IC50 at 24 h [2]: 20 µg/mL (≈ 48.3 µM) | IC50 at 24 h [3]: 19.6 µg/mL (≈ 47.3 µM)
